One data set relates to Salmonella typhimurium. The format is cell-based. As to the method: (§1) A non-GLP safety assessment for changes in retinal function and structure were evaluated in rats. […] In addition, toxicity of (S)-3-amino-4-(difluoromethylenyl)cyclopent-1-ene-1-carboxylic acid was assessed in non-GLP single-dose and repeat dose toxicity studies in rats and dogs. […] (S)-3-amino-4-(difluoromethylenyl)cyclopent-1-ene-1-carboxylic acid was not genotoxic in the Ames assay. The Ames assay is a well-known method that uses several strains of the bacterium Salmonella typhimurium to test whether a given chemical can cause mutations in the DNA of the test organism. No CNS or cardiovascular safety liabilities were identified in an Irwin study in mice. The Irwin observation test is commonly used to evaluate the effects of a new substance on behavior and physiological function. Roux et al., Curr Protoc Pharmacol. 2005 Jan. 1; Chapter 10:Unit 10.

Data set [1] can be described thus: Clearance in rat hepatocytes. The format is in vitro ADME. To be noted: read-out: intrinsic clearance (CIint).
Data set [2] in a line: Pharmacokinetics after oral administration in rat. Conditions: in vivo.
Data set [3] in a line: Pharmacokinetics after oral administration in dog. The data set is classed as in vivo.
In the next data set the target is hERG channel (Homo sapiens, UniProt Q12809). Description: hERG channel activity in vitro. On the technique in general: hERG is a cardiac potassium channel; its block is linked to QT prolongation.
Data set [4] in a line: Genetic toxicity in vitro.
Data set [5] can be described thus: 45-day oral tolerability and electroretinogram study, head-to-head with vigabatrin. The data set is classed as in vivo, mice. As to the method: (§2) In adult mice, an acute no-observed adverse-effect level (NOAEL) of 6 mg/kg by mouth was determined by evaluating behavioral neurotoxicity in naive animals. […] Based on these findings, it is clear that the inhibition of GABA-AT by (S)-3-amino-4-(difluoromethylenyl)cyclopent-1-ene-1-carboxylic acid is not necessarily associated with vigabatrin-like retinal toxicity.

Data set [6] can be described thus: Plasma protein binding, human. The data set is classed as in vitro ADME. Conditions: 37° C., one range given for rat, dog and human, read-out: bound to plasma proteins. As to the method: (§3) (S)-3-amino-4-(difluoromethylenyl)cyclopent-1-ene-1-carboxylic acid was minimally bound (4 to 20%) to proteins in rat, dog, and human plasma at 37° C.
Data set [7] is described as follows: Acute behavioral neurotoxicity in naive adult mice. To be noted: in vivo, oral. As to the method: as §2
Data set [8] can be described thus: Clearance in human hepatocytes. Conditions: read-out: intrinsic clearance (CIint). The data set is classed as in vitro ADME.
The nature of data set [9]: Plasma protein binding, dog. The format is in vitro ADME. To be noted: 37° C., one range given for rat, dog and human, read-out: bound to plasma proteins. The method, then: as §3
Data set [10] can be described thus: Non-GLP 10-day repeat dose toxicity study in rats. Conditions: for human dose converted from tolerated rat dose: Reagan-Shaw conversion. The format is in vivo. The method, then: as §1
A short description of data set [11]: Non-GLP 10-day repeat dose toxicity study in dogs. The data set is classed as in vivo. As to the method:
as §1

The nature of data set [12]: Clearance in dog hepatocytes. The data set is classed as in vitro ADME. To be noted: read-out: intrinsic clearance (CIint).
Data set [13] can be described thus: Plasma protein binding, rat. The format is in vitro ADME. Conditions: 37° C., one range given for rat, dog and human, read-out: bound to plasma proteins. The method, then: as §3
Data set [14] can be described thus: Non-GLP safety assessment of retinal function and structure. The data set is classed as in vivo, rats. The method, then: as §1

Read-outs that look alike come from different tables or passages of the source.

Chain of hERG channel (Q12809 whole entry): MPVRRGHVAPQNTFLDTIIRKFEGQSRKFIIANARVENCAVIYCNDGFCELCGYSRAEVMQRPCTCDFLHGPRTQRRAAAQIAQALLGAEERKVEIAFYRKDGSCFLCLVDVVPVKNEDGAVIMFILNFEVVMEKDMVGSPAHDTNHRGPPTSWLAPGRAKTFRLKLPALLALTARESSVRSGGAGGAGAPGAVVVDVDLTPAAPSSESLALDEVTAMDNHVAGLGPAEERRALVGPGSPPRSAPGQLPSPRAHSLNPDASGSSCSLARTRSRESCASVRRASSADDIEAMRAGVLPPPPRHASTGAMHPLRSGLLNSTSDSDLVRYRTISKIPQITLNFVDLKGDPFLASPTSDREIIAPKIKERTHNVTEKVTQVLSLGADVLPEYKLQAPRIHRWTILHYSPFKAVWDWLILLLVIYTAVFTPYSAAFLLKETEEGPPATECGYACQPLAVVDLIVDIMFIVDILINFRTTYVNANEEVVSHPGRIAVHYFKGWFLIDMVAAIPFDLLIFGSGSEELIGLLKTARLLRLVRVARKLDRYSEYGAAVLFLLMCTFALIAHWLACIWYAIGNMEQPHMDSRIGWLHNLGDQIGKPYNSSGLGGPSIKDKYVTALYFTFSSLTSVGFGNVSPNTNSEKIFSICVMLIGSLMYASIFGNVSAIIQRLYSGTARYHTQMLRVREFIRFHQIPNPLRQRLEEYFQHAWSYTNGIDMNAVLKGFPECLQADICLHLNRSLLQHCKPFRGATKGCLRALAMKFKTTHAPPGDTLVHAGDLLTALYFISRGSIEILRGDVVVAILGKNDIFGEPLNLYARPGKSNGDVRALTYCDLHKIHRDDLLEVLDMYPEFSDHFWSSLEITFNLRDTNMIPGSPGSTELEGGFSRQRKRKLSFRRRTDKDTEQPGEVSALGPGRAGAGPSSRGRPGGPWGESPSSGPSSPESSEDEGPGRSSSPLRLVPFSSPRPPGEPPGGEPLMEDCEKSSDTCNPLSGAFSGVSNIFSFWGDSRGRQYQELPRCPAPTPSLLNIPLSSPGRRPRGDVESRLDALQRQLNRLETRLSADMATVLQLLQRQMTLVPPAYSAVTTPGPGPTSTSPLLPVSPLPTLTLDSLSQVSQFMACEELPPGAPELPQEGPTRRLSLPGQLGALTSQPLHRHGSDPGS

For `N[C@H]1C=C(C(=O)O)CC1=C(F)F` [(S)-3-amino-4-(difluoromethylenyl)cyclopent-1-ene-1-carboxylic acid], the “genotoxicity in the Ames assay” value in the data set with Salmonella typhimurium was “not genotoxic”. In addition, the CLint scaled in data set [1] was determined as 24.3 mL/min/kg; in data set [8], 13.1 mL/min/kg; in data set [12], 8.97 mL/min/kg. In addition, the half-life in data set [2] (read-out: elimination half-life (t½)) was 75 to 90 min; in data set [3] (in vivo, dog, oral administration, read-out: elimination half-life (t½)) it was 75 to 90 min. In addition, the Tmax in data set [2] (read-out: time of maximum concentration (Tmax)) was in the range of 15 to 30 min; in data set [3] (in vivo, dog, oral administration, read-out: time of maximum concentration (Tmax)), 15 to 30 min. Moreover, in [3] (equivalent oral doses), the “exposure (AUC basis) in dogs compared with rats” value is reported as “higher exposure”. For the same compound, at hERG channel, the hERG channel activity result was “No evidence of genetic toxicity or hERG channel activity”. Besides, the genetic toxicity result in data set [4] is on record as “No evidence of genetic toxicity”. Also, the tolerability result in data set [5] (1 mg/kg/d by mouth for 45 days) is reported as “well tolerated”. Also, the “human dose converted from tolerated mouse dose” value in data set [5] (from 1 mg/kg/day mouse, Reagan-Shaw conversion) was found to be 0.08 mg/kg/day. For the same compound, the fraction unbound in data set [6], in data set [9] and in data set [13] was 0.8 to 0.96 in each case. Besides, the NOAEL was 0.49 mg/kg in [7] (from 6 mg/kg mouse, Reagan-Shaw conversion, read-out: human dose converted from mouse NOAEL) and 6 mg/kg in data set [7] (mouse, adult mice, by mouth, behavioral neurotoxicity, read-out: acute no-observed adverse-effect level (NOAEL)). For the same compound, in data set [10] (10-day dosing, female rats), the “well tolerated dose, female rats” value was no more than 10 mg/kg. For the same compound, the “well tolerated dose, male rats” value in data set [10] (10-day dosing, male rats) was “up to 15 mg/kg”. Also, the “human dose converted from tolerated rat dose” value turned out to be 1.62 mg/kg in data set [10] (from 10 mg/kg rat); 2.4 mg/kg in [10] (from 15 mg/kg rat); 0.48 mg/kg/day in data set [14] (from 1 mg/kg/day rat (so in the source), Reagan-Shaw conversion). Further, the “well tolerated dose, dogs” value in data set [11] (10-day dosing, male and female dogs) was “up to 1.0 mg/kg”. Moreover, the “human dose converted from tolerated dog dose” value in [11] (from 1 mg/kg dog, Reagan-Shaw conversion) was 1.54 mg/kg. The “well tolerated dose for all assessed ocular endpoints” value in data set [14] (rats, 45 days, fundoscopy, ERG, OCT and histological assessments, initial results) is listed as “up to 3 mg/kg/day”.
Take `C=CC(N)CCC(=O)O` (stereo not shown) [vigabatrin, reference compound]: in data set [5] (mouse, in vivo), the “retinal B-wave amplitudes” value was “reductions in retinal B-wave amplitudes” and the weight entry is on record as “marked reduction in weight”.

As a reminder, the half-life is the time needed for the level to fall by half in the phase considered. In general, NOAEL refers to the highest tested level that showed no adverse finding.

Values taken from US20240009160A1, “USE OF (S)-3-AMINO-4-(DIFLUOROMETHYLENYL)CYCLOPENT-1-ENE-1-CARBOXYLIC ACID IN THE TREATMENT OF CANCER” (Ovid Therapeutics, Inc., priority 2022, published 2024).
